Results: the METLIN SMRT retention time set (Domingo-Almenara et al. 2019)

Assay: gradient 5% acetonitrile 3 min, to 50% in 2 min, to 85% in 15 min, held 3 min, 100 µL/min
Settings: column: Zorbax Extend-C18 2.1 x 50 mm; eluents: water / acetonitrile, 0.1% formic acid
How it was run: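 Pure standards were run in mixtures of ~100 molecules by HPLC coupled to a quadrupole time-of-flight mass spectrometer. The column was a Zorbax Extend-C18 (2.1 × 50 mm, 1.8 μm) at 100 μL/min, with water and acetonitrile each containing 0.1% formic acid, in positive and negative ionization mode. Dead and dwell volumes were 40 μL and 900 μL. Retention time was taken from computationally picked adduct peaks, each manually inspected, with data collected over 3 months.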

For CCn1nccc1-c1cccc(-c2noc(-c3ccnc(Cl)c3)n2)c1, which RP-LC retention time is on record?
The RP-LC retention time was 1160 s.

With Cc1oc(-c2ccccc2)nc1Cc1noc(Cc2c[nH]c3ccccc23)n1 as the compound, how does the RP-LC retention time read?
The RP-LC retention time was 1010 s.

Which RP-LC retention time does the source give for COc1cccc(-n2nnc(-c3nsc(Nc4ccc(OC)c(Cl)c4)n3)c2C)c1 here?
The RP-LC retention time was 1020 s.

Which RP-LC retention time does the source give for CCc1ccc(N2CC(c3noc(-c4cccs4)n3)CC2=O)cc1 (stereo not drawn) here?
The RP-LC retention time was 1010 s.

With O=C(NC1CC1)c1cc(-c2ccc(F)cc2)n[nH]1 as the compound, how does the RP-LC retention time read?
The RP-LC retention time was 705 s.

For COc1ccc(-n2c(=O)c(C(=O)Nc3cccc(F)c3)c(O)c3cccnc32)cc1, which RP-LC retention time is on record?
Its RP-LC retention time is 1250 s.

For c1ccc(-c2nc(C3CCNC3)no2)cc1 (stereo not drawn), which RP-LC retention time is on record?
The RP-LC retention time was 591 s.

Which RP-LC retention time does the source give for O=C(C1CCN(c2nc3ccc(-c4cccs4)nc3s2)CC1)N1CCCCC1 here?
Its RP-LC retention time is 911 s.

Which RP-LC retention time does the source give for CC(=O)N1CCc2cc(C(=O)N3CCCCCC3)ccc21 here?
The RP-LC retention time was 723 s.

For COc1ccc(CNC(=O)c2[nH]c3cc(C)sc3c2CN2CCCC2)cc1, which RP-LC retention time is on record?
The RP-LC retention time was 679 s.

With Cc1ccccc1C(=O)NCCCn1cccc1 as the compound, how does the RP-LC retention time read?
The RP-LC retention time was 762 s.

For CCCNC(=O)CC1Sc2ncccc2N(CC(C)C)C1=O (stereo not drawn), which RP-LC retention time is on record?
The RP-LC retention time was 723 s.

With CN(Cc1nc2cc(C(=O)N3CCCC3)ccc2n1C)C(=O)Nc1ccccc1Br as the compound, how does the RP-LC retention time read?
The RP-LC retention time was 644 s.

For Cc1[nH]nc(-c2c(C)sc(C)c2S(=O)(=O)NCc2ccc(Br)cc2)c1C, which RP-LC retention time is on record?
The RP-LC retention time was 1130 s.

For Cc1nc(-n2cccc2)sc1C(=O)OCc1cc(-c2ccc3c(c2)OCCO3)on1, which RP-LC retention time is on record?
The RP-LC retention time was 1210 s.

Which RP-LC retention time does the source give for CCOc1cc(=O)n2c(c1C(=O)Nc1ccc3c(c1)CCC3)CCCC2 here?
Its RP-LC retention time is 815 s.

Which RP-LC retention time does the source give for COc1ccc(NC(=O)CSc2cc(N3CCN(c4ccccc4OC)CC3)ncn2)cc1 here?
The RP-LC retention time was 877 s.

Which RP-LC retention time does the source give for COc1ccc(-c2nc3cc(C)ccn3c2NC(=O)COc2ccc(Cl)cc2)cc1 here?
Its RP-LC retention time is 729 s.

With COc1ccc(-c2cc3n(n2)CCCN(C(=O)Nc2ccccc2F)C3)cc1OC as the compound, how does the RP-LC retention time read?
Its RP-LC retention time is 885 s.

Which RP-LC retention time does the source give for CCCn1cc(CCNS(=O)(=O)c2ccc(C)c(Cl)c2)c2cccnc21 here?
The RP-LC retention time was 939 s.

With Cc1ccc2c(c1)N(C(=O)Cn1cnc3c(sc4nc(-c5ccccc5)ccc43)c1=O)CCO2 as the compound, how does the RP-LC retention time read?
Its RP-LC retention time is 1130 s.

For Cn1nc(-c2nnc(-c3ccccc3Cl)o2)c2c1CCN(C(=O)c1ccc(F)c(F)c1)C2, which RP-LC retention time is on record?
The RP-LC retention time was 877 s.

With Cc1ccc(-c2nc(N3CCOCC3)ncc2C(=O)O)cc1 as the compound, how does the RP-LC retention time read?
The RP-LC retention time was 770 s.

Which RP-LC retention time does the source give for O=C(NC1CCN(c2cc(-c3ccccc3)[nH]n2)C1)c1cccc(F)c1 (stereo not drawn) here?
Its RP-LC retention time is 717 s.

For O=C(c1ccc(N2C(=O)CCS2(=O)=O)cc1Cl)N1CCN(c2ccccn2)CC1, which RP-LC retention time is on record?
Its RP-LC retention time is 583 s.

Which RP-LC retention time does the source give for CN1CCC(NC(=O)c2ccc3c(c2)N(S(=O)(=O)c2ccccc2F)CC3)CC1 here?
The RP-LC retention time was 626 s.

For Cc1ccc(C)c(Cn2nc3ccc(S(=O)(=O)N4CCc5ccccc5C4)cn3c2=O)c1, which RP-LC retention time is on record?
Its RP-LC retention time is 1100 s.

With O=C(NC1CCCCCC1)c1nc(Nc2ccccc2)c2ccccc2n1 as the compound, how does the RP-LC retention time read?
Its RP-LC retention time is 917 s.

With O=C(NC1CC(=O)N(Cc2ccccc2)C1)c1ccco1 (stereo not drawn) as the compound, how does the RP-LC retention time read?
Its RP-LC retention time is 667 s.

With CCCc1c(C(=O)O)nnn1Cc1ccccc1 as the compound, how does the RP-LC retention time read?
The RP-LC retention time was 746 s.

With c1ccc(N2CCN(Cc3cccn3-c3nnc(N4CCCCC4)s3)CC2)nc1 as the compound, how does the RP-LC retention time read?
The RP-LC retention time was 627 s.

For CCCCNC(=O)Cn1c(=O)c2cccn2c2ccc(F)cc21, which RP-LC retention time is on record?
Its RP-LC retention time is 773 s.

Which RP-LC retention time does the source give for O=C(Cn1ccn2nc(-c3ccccc3)c(CO)c2c1=O)N1CCN(c2ccccc2)CC1 here?
Its RP-LC retention time is 800 s.

With CCCN1CCN(C(=O)c2ccc3ccnc(N4CCN(c5ccc(Cl)cc5)CC4)c3c2)CC1 as the compound, how does the RP-LC retention time read?
Its RP-LC retention time is 643 s.

With O=C(C1CCN(c2ccc(Sc3ccccc3)nn2)CC1)N1CCOCC1 as the compound, how does the RP-LC retention time read?
The RP-LC retention time was 647 s.

For CCOC(=O)CC1=CC(SCC(=O)N(C)c2ccccc2)=Nc2ccccc2N1, which RP-LC retention time is on record?
The RP-LC retention time was 1100 s.

Which RP-LC retention time does the source give for COCCC1CCN(C(=O)C2CCN(C(C)=O)CC2)CC1 here?
Its RP-LC retention time is 606 s.

For Cc1noc(C)c1-c1ccc(S(=O)(=O)NC2CCCC2)cc1, which RP-LC retention time is on record?
Its RP-LC retention time is 911 s.
